Patent publication US20100075856A1, “METHOD FOR INCREASING THE DRY BIOMASS OF PLANTS” (BASF SE, priority 2006, published 2010)

Key:
Format in all cases: in vivo
[1] = test system: Soybean of the variety Conquista; assay: Biomass of soybean grains, field trial, free disease conditions (example 2.1); settings: spray, epoxiconazole pre-treatment, grains 13 to 18% residual moisture
Method: (§1) Soybean of the variety Conquista was cultivated under customary conditions at Campinas (Brazil) in 2005/2006. One part of the trial was treated with pyraclostrobin (in the form of the commercially available product F500 from BASF; diluted with water to a concentration of 0.42 g/l) at the growing stage 61/62 and the other part at GS 65/67 by spraying about 350 l/ha (150 g of active compound per ha). Control plants were treated at GS 61/62 and 65/67, respectively, with a formulation according to that of F500 but without the active compound pyraclostrobin (“blank formulation”). One week prior to the treatment either with the active formulation or with the blank formulation, the plants were treated with epoxiconazole in order to ensure absence of fungal stress. 56 days after the application at GS 65/67, the plants were harvested and the soybean grains having a residual moisture content of 13 to 18% by weight, based on the total weight of the grains, were weighed.

[2] = test system: Corn of the cultivar DKB 390; assay: Biomass of corn grains, field trial, free disease conditions (example 1.1); settings: corn DKB 390, 150 g of active compound per ha, spray, epoxiconazole pre-treatment, grains 14 to 20% residual moisture
Method: (§2) Corn of the cultivar DKB 390 was cultivated under customary conditions (150 kg/ha nitrogen) at Campinas (Brazil) in 2005/2006. One part of the trial was treated with pyraclostrobin (in the form of the commercially available product F500 from BASF; diluted with water to a concentration 0.5 g/l) at the growing stage 34/35 and the other part at GS 55/57 by spraying about 300 l/ha (150 g of active compound per ha). Control plants were treated at GS 35/35 and 55/57, respectively, with a formulation according to that of F500 but without the active compound pyraclostrobin (“blank formulation”). One week prior to the treatment either with the active formulation or with the blank formulation, the plants were treated with epoxiconazole in order to ensure absence of fungal stress. 55 days after the application at GS 55/57, the plants were harvested and the corn grains having a residual moisture content of 14 to 20% by weight, based on the total weight of the grains, were weighed.

[3] = test system: Corn of the cultivar DKB 390; assay: Biomass of corn grains, field trial, free disease conditions, another field (example 1.3); settings: corn DKB 390, another field
Method: as §2
The experiments were carried out according to example 1.1, however using another field.

[4] = test system: corn of the cultivar DKB 455; assay: Biomass of corn grains, field trial, free disease conditions (example 1.4)
Method: as §2
The experiments were carried out according to example 1.1, however using corn of the cultivar DKB 455.

[5] = test system: Soybean of the variety Conquista; assay: Biomass of soybean grains, field trial, disease conditions (example 2.2); settings: without epoxiconazole pre-treatment, grains 13 to 22% residual moisture
Method: as §1
The experiments were carried out according to example 2.1, however without the epoxiconazole pre-treatment. The residual moisture content was 13 to 22% by weight, based on the total weight of the grains.

[6] = test system: Corn of the cultivar DKB 390; assay: Biomass of corn grains, field trial, disease conditions (example 1.2); settings: corn DKB 390, 150 g of active compound per ha, without epoxiconazole pre-treatment, grains 14 to 22% residual moisture
Method: as §2
The experiments were carried out according to example 1.1, however without the epoxiconazole pre-treatment. Moreover, the concentration of pyraclostrobin in the spray liquor was 1 g/l and 150 l/ha were sprayed (150 g of active compound per ha). The residual moisture content of the grains was 14 to 22% by weight, based on the total weight of the grains.

[7] = treated at GS 61/62, 150 g of active compound per ha
[8] = treated at GS 65/67, 150 g of active compound per ha

With pyraclostrobin the Yield [1, 7] was 2254 kg/ha, the Yield [1, 8] was 2209 kg/ha and the Yield ([2]; treated at GS 34/35) was 10.4 ton/ha. The Yield ([2]; treated at GS 55/57) was 10.6 ton/ha, the Yield ([3]; treated at GS 34/35, 150 g of active compound per ha) was 8.0 ton/ha and the Yield ([3]; treated at GS 55/57, 150 g of active compound per ha) was 8.3 ton/ha. It also gave a Yield ([4]; corn DKB 455, treated at GS 34/35, 150 g of active compound per ha) of 8.6 ton/ha, a Yield ([4]; corn DKB 455, treated at GS 55/57, 150 g of active compound per ha) of 9.2 ton/ha and a Yield [5, 7] of 2163 kg/ha. The Yield [5, 8] was 2120 kg/ha, the Yield ([6]; treated at GS 34/35) was 8.7 ton/ha and the Yield ([6]; treated at GS 55/57) was 8.8 ton/ha.
